Laboratory results from patent publication US8796308B2, “Modulators of cystic fibrosis transmembrane conductance regulator” (Vertex Pharmaceuticals Incorporated, priority 2009, dated 2014).
In brackets after ≈: the same amount, converted by molar mass.

Assays:
[1] = High throughput shake flask (HTSF) solubility at pH 7.4; assay type: physicochemical; settings: aqueous buffer, kinetic from dmso stock; pH 7.4 phosphate buffer with 2% DMSO, shaken overnight
Procedure: A high throughput shake flask assay was used to determine solubility of compounds in pH 7.4 buffer. To calculate the concentration of compounds in solution, two conditions per compound were run: 300 uM in 100% DMSO and 200 uM in pH 7.4 phosphate buffer with 2% DMSO present. Each sample was left to shake overnight then injected onto HPLC-UV to determine peak area using the following conditions: Phenomenex 00A-4251-B0-30×2.00 mm Luna 3u C18(2) 100A column; 0.8 mL/min flow rate; 20 uL injection volume; HPLC grade water with 0.1% formic acid and HPLC grade acetonitrile with 0.1% formic acid mobile phases; peak area determined at 254 nm. Solubility in uM was calculated using the following equation: conc.=(peak area pH 7.4)/(peak area 300 uM DMSO standard condition)*300 uM concentration of standard condition. Peaks of interest were identified in buffer conditions based on retention time (RT) of the largest area peak in the 300 uM DMSO standard condition.

Δ508/G551D-HBE = Δ508/G551D-HBE (Homo sapiens, UniProt P13569, G551D); assay: Ussing chamber assay, Δ508/G551D-HBE; assay type: cell-based
ΔF508-CFTR in HBE = target: T1, ΔF508-CFTR in HBE (Homo sapiens, UniProt P13569, DEL508-508); assay: Ussing chamber assay, Δ508-HBE; assay type: cell-based; settings: HBE from patients homozygous for ΔF508-CFTR
T1 construct: CF-HBE were isolated from patients homozygous for ΔF508-CFTR; endogenous in cells; host or cells: primary bronchial epithelial cells (HBE) from CF patients homozygous for ΔF508
Procedure: Ussing chamber experiments were performed on polarized airway epithelial cells expressing ΔF508-CFTR to further characterize the ΔF508-CFTR modulators identified in the optical assays. Non-CF and CF airway epithelia were isolated from bronchial tissue, cultured as previously described (Galietta, L. J. V., Lantero, S., Gazzolo, A., Sacco, O., Romano, L., Rossi, G. A., & Zegarra-Moran, O. (1998) In Vitro Cell. Dev. Biol. 34, 478-481), and plated onto Costar® Snapwell™ filters that were pre-coated with NIH3T3-conditioned media. After four days the apical media was removed and the cells were grown at an air liquid interface for >14 days prior to use. […] CF-HBE were isolated from patients homozygous for ΔF508-CFTR.
HBE grown on Costar® Snapwell™ cell culture inserts were mounted in an Ussing chamber (Physiologic Instruments, Inc., San Diego, Calif.), and the transepithelial resistance and short-circuit current in the presence of a basolateral to apical Cl^− gradient (ISC) were measured using a voltage-clamp system (Department of Bioengineering, University of Iowa, Iowa). Briefly, HBE were examined under voltage-clamp recording conditions (Vhold=0 mV) at 37° C. […]

CaV 1.2 = CaV 1.2 (Homo sapiens, UniProt Q13936); assay: CaV 1.2 inhibition
[2] = target: T2, ΔF508-CFTR in NIH 3T3 cells (Homo sapiens, UniProt P13569, DEL508-508); assay: Membrane potential optical potentiator assay (FLIPR III); assay type: cell-based; settings: temperature-corrected ΔF508 CFTR NIH 3T3 cells, forskolin
T2 construct: expressed in transfected cells
Description: The assay utilizes fluorescent voltage sensing dyes to measure changes in membrane potential using a fluorescent plate reader (e.g., FLIPR III, Molecular Devices, Inc.) as a readout for increase in functional ΔF508-CFTR in NIH 3T3 cells. The driving force for the response is the creation of a chloride ion gradient in conjunction with channel activation by a single liquid addition step after the cells have previously been treated with compounds and subsequently loaded with a voltage sensing dye.
To identify potentiators of ΔF508-CFTR, a double-addition HTS assay format was developed. This HTS assay utilizes fluorescent voltage sensing dyes to measure changes in membrane potential on the FLIPR III as a measurement for increase in gating (conductance) of ΔF508 CFTR in temperature-corrected ΔF508 CFTR NIH 3T3 cells. The driving force for the response is a Cl^− ion gradient in conjunction with channel activation with forskolin in a single liquid addition step using a fluorescent plate reader such as FLIPR III after the cells have previously been treated with potentiator compounds (or DMSO vehicle control) and subsequently loaded with a redistribution dye.
Solutions • Bath Solution #1: (in mM) NaCl 160, KCl 4.5, CaCl2 2, MgCl2 1, HEPES 10, pH 7.4 with NaOH. • Chloride-free bath solution: Chloride salts in Bath Solution #1 are substituted with gluconate salts. […]

[3] = HLM/RLM stability, % remaining at 30 min; assay type: in vitro ADME

T2 sequence (P13569 with tags, fused parts or gaps DEL508-508): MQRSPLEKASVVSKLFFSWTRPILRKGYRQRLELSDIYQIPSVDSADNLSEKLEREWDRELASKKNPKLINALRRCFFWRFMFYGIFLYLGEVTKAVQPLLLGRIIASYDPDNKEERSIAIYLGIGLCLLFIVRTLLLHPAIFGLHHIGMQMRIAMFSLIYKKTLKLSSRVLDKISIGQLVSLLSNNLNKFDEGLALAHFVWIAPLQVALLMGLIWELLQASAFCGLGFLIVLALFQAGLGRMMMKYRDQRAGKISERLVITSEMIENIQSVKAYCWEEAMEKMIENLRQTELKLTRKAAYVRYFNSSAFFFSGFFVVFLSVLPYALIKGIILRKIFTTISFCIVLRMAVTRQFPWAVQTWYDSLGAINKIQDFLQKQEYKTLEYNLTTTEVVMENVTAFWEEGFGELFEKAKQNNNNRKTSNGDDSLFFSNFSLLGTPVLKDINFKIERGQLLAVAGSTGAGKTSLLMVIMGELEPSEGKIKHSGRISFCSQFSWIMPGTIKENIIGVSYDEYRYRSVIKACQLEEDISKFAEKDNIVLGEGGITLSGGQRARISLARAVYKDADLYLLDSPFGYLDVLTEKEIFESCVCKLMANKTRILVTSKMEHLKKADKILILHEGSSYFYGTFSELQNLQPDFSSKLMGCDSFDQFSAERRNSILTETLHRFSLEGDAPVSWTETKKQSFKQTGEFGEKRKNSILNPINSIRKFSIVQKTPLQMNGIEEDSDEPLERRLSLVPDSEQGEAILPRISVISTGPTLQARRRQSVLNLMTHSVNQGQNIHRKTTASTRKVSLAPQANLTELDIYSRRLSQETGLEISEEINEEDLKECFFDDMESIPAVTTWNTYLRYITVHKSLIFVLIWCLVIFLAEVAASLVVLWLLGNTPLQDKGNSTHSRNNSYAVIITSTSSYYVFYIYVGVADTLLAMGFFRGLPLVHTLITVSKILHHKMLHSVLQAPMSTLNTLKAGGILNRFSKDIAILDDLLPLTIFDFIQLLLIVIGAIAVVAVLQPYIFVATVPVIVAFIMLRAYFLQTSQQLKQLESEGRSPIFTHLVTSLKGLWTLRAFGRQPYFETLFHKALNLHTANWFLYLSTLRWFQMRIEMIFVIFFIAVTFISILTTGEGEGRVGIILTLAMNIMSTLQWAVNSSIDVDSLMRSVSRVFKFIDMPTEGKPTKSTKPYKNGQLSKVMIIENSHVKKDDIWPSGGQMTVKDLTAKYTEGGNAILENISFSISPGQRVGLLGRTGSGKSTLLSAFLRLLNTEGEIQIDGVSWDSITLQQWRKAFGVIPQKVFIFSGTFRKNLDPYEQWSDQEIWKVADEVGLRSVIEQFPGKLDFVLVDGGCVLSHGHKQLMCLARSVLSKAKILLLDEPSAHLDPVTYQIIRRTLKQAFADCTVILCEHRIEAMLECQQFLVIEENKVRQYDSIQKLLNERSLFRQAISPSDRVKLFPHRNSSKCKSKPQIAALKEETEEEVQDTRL
T1 sequence (P13569 with tags, fused parts or gaps DEL508-508): as above
Δ508/G551D-HBE, sequence (P13569 whole entry G551D, stated change not applied): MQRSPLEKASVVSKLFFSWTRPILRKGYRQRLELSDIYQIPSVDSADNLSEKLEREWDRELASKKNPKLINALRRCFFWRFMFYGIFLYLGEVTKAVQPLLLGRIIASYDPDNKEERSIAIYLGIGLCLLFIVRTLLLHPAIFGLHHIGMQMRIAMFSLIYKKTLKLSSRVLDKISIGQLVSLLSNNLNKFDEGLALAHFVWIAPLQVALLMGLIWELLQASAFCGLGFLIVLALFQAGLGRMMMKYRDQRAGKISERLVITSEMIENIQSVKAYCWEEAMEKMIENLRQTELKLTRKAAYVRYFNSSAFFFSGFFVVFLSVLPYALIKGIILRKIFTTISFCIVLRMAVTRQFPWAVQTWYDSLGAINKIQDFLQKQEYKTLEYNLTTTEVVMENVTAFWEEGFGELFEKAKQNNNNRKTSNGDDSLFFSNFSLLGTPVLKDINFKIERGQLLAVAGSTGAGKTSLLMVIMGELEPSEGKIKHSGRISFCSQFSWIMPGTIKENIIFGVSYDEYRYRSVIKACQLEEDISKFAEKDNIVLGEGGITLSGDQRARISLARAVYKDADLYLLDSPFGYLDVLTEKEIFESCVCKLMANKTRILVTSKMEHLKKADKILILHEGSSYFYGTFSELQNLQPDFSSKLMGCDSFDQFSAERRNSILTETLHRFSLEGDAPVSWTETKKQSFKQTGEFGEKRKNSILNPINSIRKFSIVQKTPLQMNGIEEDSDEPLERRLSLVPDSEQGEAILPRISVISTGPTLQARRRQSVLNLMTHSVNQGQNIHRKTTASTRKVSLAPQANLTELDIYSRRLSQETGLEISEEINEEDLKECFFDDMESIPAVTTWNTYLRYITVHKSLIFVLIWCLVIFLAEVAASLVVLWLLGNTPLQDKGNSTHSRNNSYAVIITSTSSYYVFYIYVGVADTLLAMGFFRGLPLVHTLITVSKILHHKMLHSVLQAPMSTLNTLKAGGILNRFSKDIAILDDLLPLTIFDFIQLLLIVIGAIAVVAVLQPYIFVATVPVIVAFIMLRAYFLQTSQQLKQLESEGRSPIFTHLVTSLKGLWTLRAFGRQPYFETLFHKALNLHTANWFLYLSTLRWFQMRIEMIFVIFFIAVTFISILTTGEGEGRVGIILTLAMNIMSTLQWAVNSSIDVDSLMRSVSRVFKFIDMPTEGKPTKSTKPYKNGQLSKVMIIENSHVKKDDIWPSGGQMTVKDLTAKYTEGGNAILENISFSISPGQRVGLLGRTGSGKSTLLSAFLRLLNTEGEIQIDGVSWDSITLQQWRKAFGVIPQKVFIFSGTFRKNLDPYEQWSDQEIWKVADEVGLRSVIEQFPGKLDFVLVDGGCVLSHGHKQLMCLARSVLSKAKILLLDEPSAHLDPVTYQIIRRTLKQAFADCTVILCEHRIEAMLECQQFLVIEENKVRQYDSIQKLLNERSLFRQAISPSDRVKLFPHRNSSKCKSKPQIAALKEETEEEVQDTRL
Δ508/G551D-HBE, sequence (P13569 whole entry G551D, stated change not applied): as above

| solubility [1] [µM] | EC50 (Δ508/G551D-HBE) [nM] | EC50 (ΔF508-CFTR in HBE) [nM] | EC50 [2] [nM] | SMILES | IC50 (CaV 1.2) [nM] | HLM/RLM (% remain. @ 30 min) [3] |
| --- | --- | --- | --- | --- | --- | --- |
| 87 (≈ 35.5 µg/mL) | < 2000 | < 2000 | < 2000 | CC(C)(C)c1cc(C(C)(C)CO)c(O)cc1NC(=O)c1c[nH]c2ccccc2c1=O [Compound 27, N-(2-tert-butyl-5-hydroxy-4-(1-hydroxy-2-methylpropan-2-yl)phenyl)-4-oxo-1,4-dihydroquinoline-3-carboxamide] | > 5000 | ++ (“++” if efficacy was calculated to be from 100% to 25%) |
| > 200 | 2000 to 5000 | < 2000 | 2000 to 5000 | CC(C)(C)c1cc(C(C)(C)C(=O)O)c(O)cc1NC(=O)c1c[nH]c2ccccc2c1=O [Compound 28, 2-(5-tert-butyl-2-hydroxy-4-(4-oxo-1,4-dihydroquinoline-3-carboxamido)phenyl)-2-methylpropanoic acid] | – | +++ (“+++” if efficacy was calculated to be greater than 100%) |
